Measurements: PubChem BioAssay (NCI)
“And” between values parts separate entries of the source, which are not always exact repeats. Identical values can stand only once.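 Where inhibition never reached the appropriate level, the endpoint shown equals the highest concentration tested. Otherwise, values were interpolated linearly from a five-concentration, 48-hour dose response in 96-well plates. GI50 is the concentration that inhibits growth by half. TGI is the concentration that stops growth completely.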

Experiments:
Experiment in all cases: NCI tumour cell line growth inhibition, 48 h
RXF-631 renal = test system: RXF-631 renal
DMS 114 small cell lung = test system: DMS 114 small cell lung
XF 498 CNS = test system: XF 498 CNS
HOP-18 NSCLC = test system: HOP-18 NSCLC
KM20L2 colon = test system: KM20L2 colon
DMS 273 small cell lung = test system: DMS 273 small cell lung
SNB-78 CNS = test system: SNB-78 CNS
DLD-1 colon = test system: DLD-1 colon
MDA-N = test system: MDA-N
P388 leukemia = test system: P388 leukemia
P388/ADR leukemia = test system: P388/ADR leukemia

Row | Compound | TGI (RXF-631 renal) | TGI (DMS 114 small cell lung) | TGI (XF 498 CNS) | TGI (HOP-18 NSCLC) | TGI (KM20L2 colon) | TGI (DMS 273 small cell lung) | TGI (SNB-78 CNS) | TGI (DLD-1 colon) | GI50 (MDA-N) | TGI (MDA-N) | GI50 (DMS 114 small cell lung) | GI50 (P388 leukemia) | GI50 (DLD-1 colon) | GI50 (P388/ADR leukemia) | GI50 (DMS 273 small cell lung) | GI50 (SNB-78 CNS) | GI50 (RXF-631 renal) | GI50 (HOP-18 NSCLC) | GI50 (KM20L2 colon)
1 | Cc1cc(C)cc(-n2c3nc(=O)n(C)c(=O)c-3nc3ccccc32)c1 | 80.3 µM | 29.1 µM | 81 µM | > 100 µM | 52.9 µM | 37.7 µM | > 100 µM | – | – | – | – | – | – | – | – | – | – | – | –
2 | C[Si](C)(C)/C=C/CCC(C=O)(CCCl)c1ccccc1 (stereo unspecified) | – | 54.9 µM | 36 µM | 80 µM | > 100 µM | 55.2 µM | 78.9 µM | > 100 µM | – | – | – | – | – | – | – | – | – | – | –
3 | CC[C@@]1(O)C(=O)NCc2c1cc1n(c2=O)Cc2cc3ccccc3nc2-1 | – | – | – | – | – | – | – | – | 12.4 µM | > 100 µM | – | – | – | – | – | – | – | – | –
4 | c1ccc2c(CNCCCCCCNCc3cccc4ccccc34)cccc2c1 | 9.46 µM | 20.2 µM | 7.26 µM | 29.1 µM | 6.74 µM | 26.6 µM | 23.9 µM | 13.8 µM | – | – | – | – | – | – | – | – | – | – | –
5 | C/C(=C\c1ccc(Cl)cc1)C(C)(C)C(=O)O | – | – | – | – | – | – | – | – | – | > 100 µM | – | – | – | – | – | – | – | – | –
6 | Cc1c[nH]c2c1C13CC1CN(C(=O)c1cc4cc(NC(=O)c5cc6ccccc6o5)ccc4[nH]1)C3=CC2=O (stereo unspecified) | 0.0139 µM | < 0.001 µM | – | < 0.001 µM | < 0.001 µM | – | 32.1 nM and 0.0318 µg/mL | 34.6 nM and 1.69 µg/mL | – | – | > 1.17 ng/mL | > 1.17 ng/mL | > 1.17 ng/mL | > 1.17 ng/mL | > 1.17 ng/mL | > 1.17 ng/mL | – | – | –
7 | CC#C[C@@]1(O)CCCC[C@@H]1O | > 100 µM | > 100 µM | > 100 µM | > 100 µM | > 100 µM | > 100 µM | > 100 µM | – | – | – | – | – | – | – | – | – | – | – | –
8 | Cc1cc(NS(=O)(=O)c2ccc(Nc3c4ccccc4nc4c(C(=O)Nc5ccc(S(=O)(=O)N=C(N)N)cc5)cccc34)cc2)no1 | > 100 µM | > 100 µM | > 100 µM | > 100 µM | > 100 µM | > 100 µM | > 100 µM | > 100 µM | – | – | – | – | – | – | – | – | – | – | –
9 | C=CN1C(=O)OC(c2ccccc2)C1c1ccccc1 (stereo unspecified) | > 100 µM | > 100 µM | – | > 100 µM | > 100 µM | > 100 µM | > 100 µM | > 100 µM | – | – | > 31.6 µM and 73.1 µM | – | > 100 µM | – | – | > 100 µM | > 100 µM | > 100 µM | > 100 µM
10 | Nc1nc2c(ncn2C2OC(CO)C(O)C2N)c(=O)[nH]1 (stereo unspecified) | > 100 µM | > 100 µM | > 100 µM | – | – | > 100 µM | > 100 µM | > 100 µM | – | – | – | – | – | – | – | – | – | – | –
11 | COC(=O)C1=C(OC)c2cc3c(cc2C(c2cc(OC)c(OC)c(OC)c2)C1C(=O)OC)OCO3 (stereo unspecified) | – | > 100 µM | > 100 µM | > 100 µM | > 100 µM | > 100 µM | > 100 µM | > 100 µM | – | – | – | – | – | – | – | – | – | – | –
12 | Cc1ccc2nc3c(C)c(Cl)c(=O)cc-3sc2c1 | 91.3 µM | 12.9 µM | 32.5 µM | 75.8 µM | > 100 µM | > 91.3 µM | 96.9 µM | > 100 µM | – | 32.1 µM | – | – | – | – | – | – | – | – | –
13 | CN(C)C[C@H]1CC[C@@H](CN(C)C)C1=O | – | 17.5 µM | 15.1 µM | 14.8 µM | 25.5 µM | 16.7 µM | 23.3 µM | 11.5 µM | – | 16.1 µM | – | – | – | – | – | – | – | – | –
14 | C(=N\Nc1nnc2c(n1)[nH]c1ccccc12)/c1cccnc1 | – | – | – | – | – | – | – | – | – | > 100 µM | – | – | – | – | – | – | – | – | –
15 | CC1=NNC(=NCCN(C)C)C/C1=C/c1ccccc1Cl | > 100 µM | > 100 µM | > 100 µM | > 100 µM | > 100 µM | > 100 µM | > 100 µM | > 100 µM | – | – | – | – | – | – | – | – | – | – | –
16 | Cc1cnc[nH]c1=O | > 100 µM | > 100 µM | – | > 100 µM | > 100 µM | > 100 µM | > 100 µM | > 100 µM | – | – | – | – | – | – | – | – | – | – | –
